Test [1] addresses T1, 5-hydroxytryptamine receptor 1A (Rattus norvegicus, UniProt P19327).
T1 sequence (P19327 whole entry): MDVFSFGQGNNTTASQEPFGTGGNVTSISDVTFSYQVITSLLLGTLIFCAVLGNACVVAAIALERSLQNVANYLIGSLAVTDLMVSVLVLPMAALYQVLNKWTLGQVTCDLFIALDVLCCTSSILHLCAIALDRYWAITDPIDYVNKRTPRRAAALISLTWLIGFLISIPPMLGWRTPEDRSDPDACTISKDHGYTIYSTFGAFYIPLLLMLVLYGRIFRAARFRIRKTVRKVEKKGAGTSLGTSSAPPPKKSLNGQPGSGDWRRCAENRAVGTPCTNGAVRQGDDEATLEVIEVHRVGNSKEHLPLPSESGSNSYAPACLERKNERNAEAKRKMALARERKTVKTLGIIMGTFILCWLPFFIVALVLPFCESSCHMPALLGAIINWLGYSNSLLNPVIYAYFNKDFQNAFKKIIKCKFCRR
As to the kind of experiment: Binding affinity towards rat 5-hydroxytryptamine 1A receptor using [3H]8-OH-DPAT radioligand.

In test [2] the target is 5-hydroxytryptamine receptor 2A (Rattus norvegicus, UniProt P14842). Nature of the test: Compound was evaluated for the binding affinity towards 5-hydroxytryptamine 2A receptor using [3H]ketanserin radioligand.
Sequence of 5-hydroxytryptamine receptor 2A (P14842 whole entry): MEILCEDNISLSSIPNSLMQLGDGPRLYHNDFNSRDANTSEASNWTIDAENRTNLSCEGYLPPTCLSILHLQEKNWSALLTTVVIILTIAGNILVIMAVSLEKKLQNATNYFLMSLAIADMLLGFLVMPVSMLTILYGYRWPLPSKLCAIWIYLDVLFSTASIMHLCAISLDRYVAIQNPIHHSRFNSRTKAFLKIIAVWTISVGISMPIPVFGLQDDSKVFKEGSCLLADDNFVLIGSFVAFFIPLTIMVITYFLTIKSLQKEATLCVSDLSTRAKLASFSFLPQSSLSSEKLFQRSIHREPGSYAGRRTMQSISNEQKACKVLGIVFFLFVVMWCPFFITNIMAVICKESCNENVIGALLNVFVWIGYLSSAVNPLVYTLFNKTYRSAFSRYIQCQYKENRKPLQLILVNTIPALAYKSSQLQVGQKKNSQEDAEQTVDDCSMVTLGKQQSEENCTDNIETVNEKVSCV
The target in test [3] is T2, Adrenergic receptor alpha-1 (Rattus norvegicus, UniProt P15823+P23944+P43140).
T2 sequence (P15823 whole entry): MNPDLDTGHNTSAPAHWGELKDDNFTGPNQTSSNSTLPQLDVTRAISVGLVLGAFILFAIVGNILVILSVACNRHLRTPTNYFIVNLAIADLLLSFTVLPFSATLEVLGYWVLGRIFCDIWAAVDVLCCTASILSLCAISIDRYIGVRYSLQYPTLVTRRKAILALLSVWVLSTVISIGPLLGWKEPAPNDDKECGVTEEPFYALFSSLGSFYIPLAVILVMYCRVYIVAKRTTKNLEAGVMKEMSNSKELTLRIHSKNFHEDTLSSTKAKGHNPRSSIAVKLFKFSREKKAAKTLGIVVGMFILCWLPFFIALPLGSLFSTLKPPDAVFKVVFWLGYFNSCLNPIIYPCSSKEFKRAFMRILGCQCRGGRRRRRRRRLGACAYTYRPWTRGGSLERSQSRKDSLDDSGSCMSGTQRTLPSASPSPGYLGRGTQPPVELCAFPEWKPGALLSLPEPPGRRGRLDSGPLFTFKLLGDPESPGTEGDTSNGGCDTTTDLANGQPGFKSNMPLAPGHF
T2 sequence (P23944 whole entry): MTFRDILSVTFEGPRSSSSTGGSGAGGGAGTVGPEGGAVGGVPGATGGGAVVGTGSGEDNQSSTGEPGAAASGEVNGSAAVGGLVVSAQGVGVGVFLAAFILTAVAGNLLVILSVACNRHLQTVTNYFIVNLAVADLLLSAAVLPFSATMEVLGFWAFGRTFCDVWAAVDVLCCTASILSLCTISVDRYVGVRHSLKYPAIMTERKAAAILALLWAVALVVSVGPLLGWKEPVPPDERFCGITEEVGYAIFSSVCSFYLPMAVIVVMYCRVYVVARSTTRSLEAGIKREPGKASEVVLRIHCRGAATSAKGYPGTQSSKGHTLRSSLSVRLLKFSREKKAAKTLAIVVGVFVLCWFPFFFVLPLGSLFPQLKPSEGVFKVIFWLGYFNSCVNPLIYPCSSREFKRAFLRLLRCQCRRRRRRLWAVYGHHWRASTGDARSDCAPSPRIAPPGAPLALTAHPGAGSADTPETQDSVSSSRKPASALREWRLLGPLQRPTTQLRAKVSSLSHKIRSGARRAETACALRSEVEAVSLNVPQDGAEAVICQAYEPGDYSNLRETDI
T2 sequence (P43140 whole entry): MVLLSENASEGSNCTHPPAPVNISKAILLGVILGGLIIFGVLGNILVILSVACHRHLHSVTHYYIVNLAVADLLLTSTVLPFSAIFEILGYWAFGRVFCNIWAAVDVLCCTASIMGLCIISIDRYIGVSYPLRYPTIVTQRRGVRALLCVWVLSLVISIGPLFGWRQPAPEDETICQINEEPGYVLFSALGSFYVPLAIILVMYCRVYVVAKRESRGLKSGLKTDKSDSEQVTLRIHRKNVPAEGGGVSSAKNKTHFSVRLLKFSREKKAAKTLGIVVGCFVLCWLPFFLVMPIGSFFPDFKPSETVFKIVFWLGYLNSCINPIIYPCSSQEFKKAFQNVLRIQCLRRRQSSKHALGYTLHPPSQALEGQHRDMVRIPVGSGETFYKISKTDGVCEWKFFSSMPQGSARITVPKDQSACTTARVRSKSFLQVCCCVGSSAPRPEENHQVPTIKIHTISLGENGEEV
As to the kind of experiment: Binding affinity towards alpha-1 adrenergic receptor using [3H]prazosin radioligand. It is filed as protein assay.

A further test concerns the target D(2) dopamine receptor (Rattus norvegicus, UniProt P61169). Nature of the test: Binding affinity towards dopamine receptor D2 using [3H]-raclopride radioligand.
Test [4] deals with Mus musculus. As to the kind of experiment: Effect on rectal temperature in mice at dose of 0.5 mg/kg sc. It is filed as functional.
The subject of test [5] is Mus musculus. Nature of the test: Effect on rectal temperature in mice at dose of 10 mg/kg po. It is filed as functional.
Test [6] has as its system Mus musculus. As to the kind of experiment: Effect on rectal temperature in mice at dose of 10 mg/kg sc. It is filed as functional.
In test [7] the test system is Mus musculus. Nature of the test: Effect on rectal temperature in mice at dose of 2.5 mg/kg sc. It is filed as functional.
Test [8] relates to Mus musculus. As to the kind of experiment: Effect on rectal temperature in mice at dose of 20 mg/kg po. It is filed as functional.
The subject of test [9] is Mus musculus. As to the kind of experiment: Effect on rectal temperature in mice at dose of 20 mg/kg sc. It is filed as functional.
Test [10] concerns Mus musculus. As to the kind of experiment: Effect on rectal temperature in mice at dose of 30 mg/kg po. It is filed as functional.
The subject of test [11] is Mus musculus. Nature of the test: Effect on rectal temperature in mice at dose of 40 mg/kg po. It is filed as functional.
Test [12] has as its system Mus musculus. As to the kind of experiment: Effect on rectal temperature in mice at dose of 5 mg/kg sc. It is filed as functional.
The species named for test [13] is Mus musculus. Nature of the test: Effect in the social interaction behavioral test in mice. It is filed as functional.

The values below come from ChEMBL document CHEMBL1129734, “Synthesis and structure-activity relationships of a new model of arylpiperazines. 1. 2-[[4-(o-methoxyphenyl)piperazin-1-yl]methyl]-1, 3-dioxoperhydroimidazo[1,5-alpha]pyridine: a selective 5-HT1A receptor agonist” (J Med Chem, 1996).

One may read the Ki as a measure of affinity in units of concentration, obtained from inhibition or displacement. Low values mean higher affinity, high ones lower affinity. The ED50 is the dose that gives a 50% effect, or the effect in half of the subjects.

The structures appear in SMILES notation.

Sequence of D(2) dopamine receptor (P61169 whole entry): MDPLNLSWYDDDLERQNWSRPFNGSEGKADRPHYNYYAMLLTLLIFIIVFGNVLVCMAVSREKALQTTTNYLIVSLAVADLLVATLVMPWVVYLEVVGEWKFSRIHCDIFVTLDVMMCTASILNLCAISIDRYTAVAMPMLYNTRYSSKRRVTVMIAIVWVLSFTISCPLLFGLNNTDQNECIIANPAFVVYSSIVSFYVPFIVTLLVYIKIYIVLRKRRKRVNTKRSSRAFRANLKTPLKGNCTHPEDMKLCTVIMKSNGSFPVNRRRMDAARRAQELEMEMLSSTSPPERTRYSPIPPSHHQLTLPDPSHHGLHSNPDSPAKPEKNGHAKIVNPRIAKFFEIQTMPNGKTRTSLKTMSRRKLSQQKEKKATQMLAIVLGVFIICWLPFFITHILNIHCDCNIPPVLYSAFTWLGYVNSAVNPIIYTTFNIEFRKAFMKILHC

Turning to `COc1ccccc1N1CCN(CN2C(=O)C3CCCCN3C2=O)CC1` (centres undefined), the inhibition constant Ki in [1] was 31.7 nM; in test [2], above 1000 nM; in [3], above 1000 nM; on D(2) dopamine receptor it was above 10000 nM. The T decrease was 0.37 °C in the test with Mus musculus [4]; -0.3 °C in the test with Mus musculus [5]; -1.46 °C in the test on Mus musculus [6]; 0.06 °C with Mus musculus [7]; 0.22 °C with Mus musculus [8]; -1.56 °C with Mus musculus [9]. The T decrease was -0.28 °C in the test with Mus musculus [10], -0.85 °C in the test on Mus musculus [11] and -0.78 °C in the test on Mus musculus [12]. Further, the 50% effective dose (ED50) in the test filed under Mus musculus [13] turned out to be 3.58 mg/kg. The compound further had a Max effect in the test listed under Mus musculus [13] of 130.8 s.
Turning to `O=C1C2CCCN2C(=O)N1CCCCN1CCN(c2ccccc2)CC1` (centres undefined), the Ki in test [1] stood at 24.8 nM; in test [3] it was 26.4 nM; on D(2) dopamine receptor, 416 nM.
Take `O=C1C2CCCN2C(=O)N1CCCCN1CCN(c2ccc([N+](=O)[O-])cc2)CC1` (centres undefined): the Ki in test [1] was above 1000 nM; in test [3] it was 247 nM; at D(2) dopamine receptor, above 1000 nM.
For the compound `O=C1C2CCCN2C(=O)N1CCCN1CCN(c2ccc(F)cc2)CC1` (centres undefined), the inhibition constant (Ki) in test [1] is above 1000 nM; in test [3] it was 25.2 nM; at D(2) dopamine receptor, above 1000 nM.
For the compound `CCCN(CCC)C1CCc2cccc(O)c2C1` (centres undefined) [8-OH-DPAT], the T decrease in the test on Mus musculus [4] is -0.9 °C; in the test with Mus musculus [6], -2.26 °C; in the test on Mus musculus [7], -1.7 °C; in the test on Mus musculus [12] it was -1.66 °C. The same compound showed an ED50 in the test filed under Mus musculus [13] of 0.58 mg/kg. In the test listed under Mus musculus [13], this compound displayed a Max effect of 132.2 s.
`O=C1C2CCCCN2C(=O)N1CCCCN1CCN(c2cccc(C(F)(F)F)c2)CC1` (centres undefined): the Ki in [1] amounted to 9.9 nM; in [3], 72.4 nM; on D(2) dopamine receptor, 90.6 nM. Moreover, the T decrease is -0.58 °C in the test with Mus musculus [4]; 0.07 °C in the test on Mus musculus [5]; -1.55 °C in the test on Mus musculus [6]; -0.77 °C with Mus musculus [7]; -0.55 °C in the test with Mus musculus [8]; -2.73 °C with Mus musculus [9]. The values for the T decrease in the test with Mus musculus [10], with Mus musculus [11] and with Mus musculus [12] were -1.23 °C, -1 °C and -0.92 °C, respectively. For the same compound, in the test filed under Mus musculus [13], the 50% effective dose (ED50) was 1.25 mg/kg. This compound also returned a Max effect in the test listed under Mus musculus [13] of 56.5 s.
Consider `O=C1C2CCCCN2C(=O)N1CCN1CCN(c2cccc(C(F)(F)F)c2)CC1` (centres undefined), for which the values for the Ki (in [1]; in test [3]; on D(2) dopamine receptor) were 65.8 nM, above 1000 nM and above 1000 nM, respectively.
As for `O=C1C2CCCCN2C(=O)N1CN1CCN(c2ccc([N+](=O)[O-])cc2)CC1` (centres undefined), the inhibition constant (Ki) was above 1000 nM in [1], above 10000 nM in test [3] and above 10000 nM at D(2) dopamine receptor.
In the case of `O=C1C2CCCCN2C(=O)N1CCCN1CCN(c2ccc([N+](=O)[O-])cc2)CC1` (centres undefined), the Ki was above 10000 nM in test [1], above 1000 nM in [3] and above 10000 nM on D(2) dopamine receptor.
For the compound `COc1ccccc1N1CCN(CCCCN2C(=O)C3CCCCN3C2=O)CC1` (centres undefined), the Ki in [1] was 8.8 nM; in test [3], 8.6 nM; at D(2) dopamine receptor, above 1000 nM.
Taken in the same sequence, the figures for `O=C1C2CCCCN2C(=O)N1CCN1CCN(c2ccccc2)CC1` (centres undefined) were above 1000 nM, above 1000 nM and above 1000 nM.
